Data reported in ChEMBL document CHEMBL3431459, “Roche carnitine palmitoyltransferase modulator screening data (supplementary data associated with the publication CHEMBL2216752)”.
≈ marks a conversion by molar mass, not a printed value.

Key:
[1] = target: T1, Carnitine O-palmitoyltransferase 1, muscle isoform (Homo sapiens, UniProt Q92523); experiment: SUPPLEMENTARY: Inhibition of Carnitine palmitoyltransferase 1, muscle isoform; parameters: species or system Muscle tissue
T1 sequence (Q92523 whole entry): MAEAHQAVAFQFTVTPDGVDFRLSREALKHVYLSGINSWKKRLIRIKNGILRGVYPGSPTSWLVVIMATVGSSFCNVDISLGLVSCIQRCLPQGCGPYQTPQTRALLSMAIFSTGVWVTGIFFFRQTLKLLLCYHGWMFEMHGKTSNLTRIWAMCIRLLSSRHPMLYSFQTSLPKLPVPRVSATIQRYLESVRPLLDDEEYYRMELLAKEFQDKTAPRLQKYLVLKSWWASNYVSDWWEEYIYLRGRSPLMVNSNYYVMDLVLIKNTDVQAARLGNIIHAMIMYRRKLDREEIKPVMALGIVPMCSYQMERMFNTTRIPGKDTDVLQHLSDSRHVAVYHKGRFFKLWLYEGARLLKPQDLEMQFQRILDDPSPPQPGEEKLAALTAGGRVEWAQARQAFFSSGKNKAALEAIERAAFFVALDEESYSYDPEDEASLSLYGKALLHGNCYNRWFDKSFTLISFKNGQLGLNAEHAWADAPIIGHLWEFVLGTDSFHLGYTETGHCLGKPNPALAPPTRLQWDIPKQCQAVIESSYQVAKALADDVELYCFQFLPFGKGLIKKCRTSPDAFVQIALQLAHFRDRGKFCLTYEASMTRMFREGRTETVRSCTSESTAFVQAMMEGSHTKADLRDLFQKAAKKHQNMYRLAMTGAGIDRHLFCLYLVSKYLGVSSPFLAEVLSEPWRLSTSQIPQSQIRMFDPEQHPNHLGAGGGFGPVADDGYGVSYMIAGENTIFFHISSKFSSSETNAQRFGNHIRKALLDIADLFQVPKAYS

[2] = SUPPLEMENTARY: PAMPA permeability assay; type: physicochemical; conditions: read-out: Permeability
[3] = SUPPLEMENTARY: Lyophilisation Solubility Assay (LYSA); type: physicochemical; conditions: read-out: Kinetic_solubility
[4] = target: T2, Carnitine O-palmitoyltransferase 2, mitochondrial (Homo sapiens, UniProt P23786); experiment: (§1) SUPPLEMENTARY: Inhibition of Carnitine palmitoyltransferase 2
T2 sequence (P23786 whole entry): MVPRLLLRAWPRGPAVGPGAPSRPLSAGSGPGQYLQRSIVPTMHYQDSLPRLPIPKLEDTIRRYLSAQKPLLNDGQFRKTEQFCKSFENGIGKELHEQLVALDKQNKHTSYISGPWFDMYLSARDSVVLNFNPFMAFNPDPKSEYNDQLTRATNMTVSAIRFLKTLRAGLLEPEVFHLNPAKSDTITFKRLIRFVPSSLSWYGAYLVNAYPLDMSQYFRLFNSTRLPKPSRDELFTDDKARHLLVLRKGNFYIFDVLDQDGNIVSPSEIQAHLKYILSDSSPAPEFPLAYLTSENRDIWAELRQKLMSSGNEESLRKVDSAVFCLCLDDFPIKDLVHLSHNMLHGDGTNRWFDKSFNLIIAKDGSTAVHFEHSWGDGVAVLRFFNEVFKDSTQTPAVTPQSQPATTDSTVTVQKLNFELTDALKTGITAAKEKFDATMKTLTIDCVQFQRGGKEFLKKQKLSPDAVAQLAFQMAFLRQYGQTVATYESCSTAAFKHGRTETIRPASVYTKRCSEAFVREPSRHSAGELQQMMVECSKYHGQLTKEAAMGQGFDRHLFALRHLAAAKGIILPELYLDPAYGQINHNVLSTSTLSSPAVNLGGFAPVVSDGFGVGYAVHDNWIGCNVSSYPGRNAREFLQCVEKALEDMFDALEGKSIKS

[5] = target: T3, Carnitine O-palmitoyltransferase 2, mitochondrial (Rattus norvegicus, UniProt P18886); experiment: as §1
T3 sequence (P18886 whole entry): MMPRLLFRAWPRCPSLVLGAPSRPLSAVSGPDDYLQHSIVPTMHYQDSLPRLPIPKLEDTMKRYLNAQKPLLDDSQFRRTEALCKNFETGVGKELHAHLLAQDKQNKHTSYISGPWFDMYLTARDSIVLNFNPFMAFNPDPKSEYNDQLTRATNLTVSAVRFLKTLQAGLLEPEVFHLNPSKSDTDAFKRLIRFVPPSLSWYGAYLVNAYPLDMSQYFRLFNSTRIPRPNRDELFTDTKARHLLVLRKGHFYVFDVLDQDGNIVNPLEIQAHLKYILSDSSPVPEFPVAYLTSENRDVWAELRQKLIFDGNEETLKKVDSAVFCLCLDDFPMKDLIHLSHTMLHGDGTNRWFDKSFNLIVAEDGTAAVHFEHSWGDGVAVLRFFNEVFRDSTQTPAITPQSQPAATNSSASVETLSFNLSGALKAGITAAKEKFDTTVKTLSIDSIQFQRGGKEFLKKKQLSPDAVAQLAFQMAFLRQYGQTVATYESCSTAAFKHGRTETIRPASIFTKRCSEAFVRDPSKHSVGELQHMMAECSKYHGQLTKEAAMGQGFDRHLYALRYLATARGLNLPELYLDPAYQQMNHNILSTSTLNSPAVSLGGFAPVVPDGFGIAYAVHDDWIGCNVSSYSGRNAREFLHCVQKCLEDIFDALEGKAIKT

[6] = target: T4, Carnitine O-palmitoyltransferase 1, liver isoform (Homo sapiens, UniProt P50416); experiment: (§2) SUPPLEMENTARY: Inhibition of Carnitine palmitoyltransferase 1, liver isoform
T4 sequence (P50416 whole entry): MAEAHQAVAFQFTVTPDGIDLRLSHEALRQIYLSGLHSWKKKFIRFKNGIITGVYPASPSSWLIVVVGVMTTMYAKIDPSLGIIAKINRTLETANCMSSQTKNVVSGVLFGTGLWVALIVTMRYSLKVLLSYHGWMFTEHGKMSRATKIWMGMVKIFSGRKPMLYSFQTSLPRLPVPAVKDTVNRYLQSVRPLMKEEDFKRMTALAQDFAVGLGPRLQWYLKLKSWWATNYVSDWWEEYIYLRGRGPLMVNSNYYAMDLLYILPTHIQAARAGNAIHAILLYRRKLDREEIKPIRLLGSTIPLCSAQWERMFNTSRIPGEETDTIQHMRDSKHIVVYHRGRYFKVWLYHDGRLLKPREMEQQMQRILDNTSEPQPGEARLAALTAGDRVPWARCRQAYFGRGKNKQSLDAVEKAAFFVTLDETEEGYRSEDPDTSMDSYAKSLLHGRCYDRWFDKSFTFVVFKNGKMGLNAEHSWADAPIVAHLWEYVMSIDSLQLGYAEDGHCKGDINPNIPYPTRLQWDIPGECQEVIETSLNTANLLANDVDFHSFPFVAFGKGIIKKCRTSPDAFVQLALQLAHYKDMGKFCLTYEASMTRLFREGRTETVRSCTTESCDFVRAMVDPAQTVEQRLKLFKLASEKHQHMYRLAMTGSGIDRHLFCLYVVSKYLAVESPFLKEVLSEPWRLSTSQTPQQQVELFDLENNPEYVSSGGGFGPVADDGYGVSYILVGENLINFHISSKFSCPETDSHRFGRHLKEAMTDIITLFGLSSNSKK

[7] = SUPPLEMENTARY: Lipophilicity (log D) Determination by high-throughput shake-flask; type: physicochemical; conditions: octanol/water
[8] = target: T5, Carnitine O-palmitoyltransferase 1, liver isoform (Rattus norvegicus, UniProt P32198); experiment: as §2
T5 sequence (P32198 whole entry): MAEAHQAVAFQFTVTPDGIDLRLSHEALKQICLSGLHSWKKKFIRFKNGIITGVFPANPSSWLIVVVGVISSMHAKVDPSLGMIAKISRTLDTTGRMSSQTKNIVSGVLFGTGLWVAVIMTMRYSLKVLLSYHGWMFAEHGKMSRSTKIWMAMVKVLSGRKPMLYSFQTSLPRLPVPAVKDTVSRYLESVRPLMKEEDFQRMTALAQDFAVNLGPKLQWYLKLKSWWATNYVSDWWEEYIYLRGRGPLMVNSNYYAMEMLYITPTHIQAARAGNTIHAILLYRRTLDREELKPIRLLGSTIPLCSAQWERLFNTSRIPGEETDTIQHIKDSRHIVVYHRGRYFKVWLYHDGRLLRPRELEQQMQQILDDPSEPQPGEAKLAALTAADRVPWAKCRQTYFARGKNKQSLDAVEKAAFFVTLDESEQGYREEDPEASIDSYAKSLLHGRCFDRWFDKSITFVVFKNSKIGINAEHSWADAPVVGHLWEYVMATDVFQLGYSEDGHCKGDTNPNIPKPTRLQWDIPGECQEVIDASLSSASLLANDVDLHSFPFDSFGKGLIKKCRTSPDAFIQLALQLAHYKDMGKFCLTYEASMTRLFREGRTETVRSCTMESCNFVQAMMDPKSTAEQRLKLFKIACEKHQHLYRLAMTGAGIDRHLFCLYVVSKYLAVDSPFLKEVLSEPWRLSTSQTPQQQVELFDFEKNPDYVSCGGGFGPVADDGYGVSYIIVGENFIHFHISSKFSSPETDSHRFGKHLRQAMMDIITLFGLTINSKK

| Structure (SMILES) | IC50 [1] | Papp [2] | solubility kinetic [3] | IC50 [4] | IC50 [5] | IC50 [6] | logD [7] | IC50 [8] |
| --- | --- | --- | --- | --- | --- | --- | --- | --- |
| COc1ccc(Cl)cc1CN1C(=O)OCc2ccc(C(=O)Nc3ccc(CC(=O)O)cc3)cc21 | 13000 nM | 1.48 ×10⁻⁶ cm/s | 44 µg/mL (≈ 91.5 µM) | > 100000 nM | > 100000 nM | 294 nM | 0.06 | – |
| COCCN(C)C(=O)c1cncc(-c2noc([C@H]3CCCCN3C(=O)COc3ccccc3)n2)c1 | > 100000 nM | 4.13 ×10⁻⁶ cm/s | > 559 µg/mL | 7350 nM | – | 165 nM | 1.83 | 469 nM |
| O=C(O)c1ccc(NC(=O)c2ccc3c(c2)N(S(=O)(=O)c2cccc(Cl)c2)CCO3)cc1 | > 100000 nM | 3.01 ×10⁻⁶ cm/s | 2 µg/mL (≈ 4.23 µM) | 94700 nM | – | 66.4 nM | 2.92 | 89.8 nM |
| O=C(COc1ccccc1)N1CCCC[C@@H]1c1nc(-c2cccc(-c3nnco3)c2)n[nH]1 | 748 nM | 3.05 ×10⁻⁶ cm/s | 26 µg/mL (≈ 60.4 µM) | 86100 nM | – | 80 nM | 2.66 | 388 nM |
| COc1ccc(-c2noc(C3C[S+]([O-])CCN3C(=O)COc3ccccc3)n2)cc1 (centres undefined) | > 100000 nM | 3.4 ×10⁻⁶ cm/s | 132 µg/mL (≈ 309 µM) | > 100000 nM | – | 164 nM | 2.19 | 244 nM |
| NNC(=O)c1cccc(-c2n[nH]c([C@H]3CCCCN3C(=O)COc3ccccc3)n2)c1 | > 100000 nM | 2.02 ×10⁻⁶ cm/s | 87 µg/mL (≈ 207 µM) | 23500 nM | – | 264 nM | 1.65 | 1630 nM |
| O=C(O)COc1cccc(-c2noc([C@H]3CCCCN3C(=O)COc3ccccc3)n2)c1 | 45900 nM | 0.37 ×10⁻⁶ cm/s | > 547 µg/mL | 19800 nM | – | 196 nM | -0.64 | 594 nM |
| CNC(=O)c1cncc(-c2noc([C@H]3CCCCN3C(=O)COc3ccccc3)n2)c1 | > 100000 nM | 3.8 ×10⁻⁶ cm/s | 362 µg/mL (≈ 859 µM) | 88500 nM | – | 203 nM | 2.09 | 422 nM |
| O=C(COc1ccccc1)N1CCCCC1c1cc(-c2ccccc2)n[nH]1 (centres undefined) | > 100000 nM | 0.53 ×10⁻⁶ cm/s | 7 µg/mL (≈ 19.4 µM) | 60600 nM | – | 159 nM | 3.63 | 375 nM |
| CCN(CC)C(=O)c1cncc(-c2noc([C@H]3CCCCN3C(=O)COc3ccccc3)n2)c1 | > 100000 nM | 5.44 ×10⁻⁶ cm/s | 431 µg/mL (≈ 930 µM) | 9180 nM | – | 217 nM | 2.5 | 354 nM |
| COc1ccc(Cl)cc1S(=O)(=O)N1CCCCc2ccc(C(=O)Nc3ccc(C(=O)O)c(Cl)c3)cc21 | 3010 nM | 2.54 ×10⁻⁶ cm/s | 36 µg/mL (≈ 65.5 µM) | 12000 nM | – | 370 nM | 0.66 | 188 nM |
| O=C(COc1ccccc1)N1CCCC[C@@H]1c1nc(-c2cccc(B(O)O)c2)no1 | 30600 nM | 4.15 ×10⁻⁶ cm/s | 11 µg/mL (≈ 27 µM) | 15600 nM | – | 67.2 nM | 2.16 | 205 nM |
